Source: patent US9957265B2, “N-(2-cyano heterocyclyl) pyrazolo pyridones as janus kinase inhibitors” (Merck Sharp & Dohme Corp., priority 2013, dated 2018)

What was measured:
JAK1 = JAK1 (Homo sapiens (Human), UniProt P23458); assay: Jak Biochemical HTRF Assay (JAK1); settings: recombinant GST-tagged catalytic domain, [ATP] 31.8 μM, unit not given (compound concentrations tested given in nM)
Text: Jak Biochemical HTRF Assay Protocol
Subsequent reagent additions employed an Agilent Bravo.

JAK2 = JAK2 (Homo sapiens (Human), UniProt O60674); assay: Jak Biochemical HTRF Assay (JAK2); settings: JAK2 IC50, recombinant GST-tagged catalytic domain, [ATP] 8.5 μM, unit not given (compound concentrations tested given in nM)
JAK2, sequence (O60674 849-1124): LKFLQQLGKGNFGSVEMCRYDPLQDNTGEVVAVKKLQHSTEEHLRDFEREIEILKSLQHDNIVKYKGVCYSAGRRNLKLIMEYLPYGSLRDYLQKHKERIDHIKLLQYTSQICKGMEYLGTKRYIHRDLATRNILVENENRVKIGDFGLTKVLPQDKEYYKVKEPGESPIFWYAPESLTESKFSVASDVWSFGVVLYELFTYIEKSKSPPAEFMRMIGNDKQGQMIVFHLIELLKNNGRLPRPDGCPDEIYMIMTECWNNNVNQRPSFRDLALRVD

JAK1, sequence (P23458 875-1153): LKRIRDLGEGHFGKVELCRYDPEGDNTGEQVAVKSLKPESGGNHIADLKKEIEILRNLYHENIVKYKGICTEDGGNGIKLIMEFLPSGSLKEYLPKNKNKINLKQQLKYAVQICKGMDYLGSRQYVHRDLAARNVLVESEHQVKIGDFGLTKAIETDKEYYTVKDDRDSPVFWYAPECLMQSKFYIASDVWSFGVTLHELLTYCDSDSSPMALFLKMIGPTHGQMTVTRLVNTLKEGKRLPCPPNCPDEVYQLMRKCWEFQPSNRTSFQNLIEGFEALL

SMILES	IC50 (JAK1) [nM]	IC50 (JAK2) [nM]
CC(C)(C)S(=O)(=O)c1ccc(Nc2nn([C@@H]3COCCC[C@@H]3C#N)c3cc[nH]c(=O)c23)cc1 (single isomer, unassigned) [Example 1-25, (3S,4S or 3R,4R)-3-(3-{[4-(tert-butylsulfonyl)phenyl]amino}-4-oxo-4,5-dihydro-1H-pyrazolo[4,3-c]pyridin-1-yl)oxepane-4-carbonitrile]	2.27	3.43
COC(C)(c1ccc(Nc2nn([C@H]3COCC[C@@H]3C#N)c3cc[nH]c(=O)c23)cc1)C(F)(F)F (single isomer, unassigned) [Example 1-33, (3R,4S)-3-(4-oxo-3-((4-((S or R)-1,1,1-trifluoro-2-methoxypropan-2-yl)phenyl)amino)-4,5-dihydro-1H-pyrazolo[4,3-c]pyridin-1-yl)tetrahydro-2H-pyran-4-carbonitrile]	0.04	0.09
CC1c2cc(Nc3nn([C@H]4COCC[C@@H]4C#N)c4cc[nH]c(=O)c34)ccc2S(=O)(=O)N1C (single isomer, unassigned) [Example 1-34, (3R,4S)-3-(3-(((R or S)-2,3-dimethyl-1,1-dioxido-2,3-dihydrobenzo[d]isothiazol-5-yl)amino)-4-oxo-4,5-dihydro-1H-pyrazolo[4,3-c]pyridin-1-yl)tetrahydro-2H-pyran-4-carbonitrile]	0.03	1.18
CN1CCN(C(c2ccc(Nc3nn([C@H]4COCC[C@@H]4C#N)c4cc[nH]c(=O)c34)cc2)C(F)(F)F)CC1 (single isomer, unassigned) [Example 1-36, (3R,4S)-3-[4-oxo-3-({4-[(1R or 1S)-2,2,2-trifluoro-1-(4-methylpiperazin-1-yl)ethyl]phenyl}amino)-4,5-dihydro-1H-pyrazolo[4,3-c]pyridin-1-yl]tetrahydro-2H-pyran-4-carbonitrile]	0.24	0.27
CN1CCN(C(c2ccc(Nc3nn([C@H]4COCC[C@@H]4C#N)c4cc[nH]c(=O)c34)cc2)C(F)(F)F)CC1 (single isomer, unassigned) [Example 1-37, (3R,4S)-3-[4-oxo-3-({4-[(1S or 1R)-2,2,2-trifluoro-1-(4-methylpiperazin-1-yl)ethyl]phenyl}amino)-4,5-dihydro-1H-pyrazolo[4,3-c]pyridin-1-yl]tetrahydro-2H-pyran-4-carbonitrile]	0.22	0.33
N#C[C@H]1CCOC[C@@H]1n1nc(Nc2ccc(C(N3CCNCC3)C(F)(F)F)cc2)c2c(=O)[nH]ccc21 (single isomer, unassigned) [Example 1-38, (3R,4S)-3-[4-oxo-3-({4-[(1R or 1S)-2,2,2-trifluoro-1-piperazin-1-ylethyl]phenyl}amino)-4,5-dihydro-1H-pyrazolo[4,3-c]pyridin-1-yl]tetrahydro-2H-pyran-4-carbonitrile]	0.09	0.13
N#C[C@H]1CCOC[C@@H]1n1nc(Nc2ccc(C(N3CCNCC3)C(F)(F)F)cc2)c2c(=O)[nH]ccc21 (single isomer, unassigned) [Example 1-39, (3R,4S)-3-[4-oxo-3-({4-[(1S or 1R)-2,2,2-trifluoro-1-piperazin-1-ylethyl]phenyl}amino)-4,5-dihydro-1H-pyrazolo[4,5-c]pyridin-1-yl]tetrahydro-2H-pyran-4-carbonitrile]	0.13	0.17
CC(C)(C)OC(=O)CNC(c1ccc(Nc2nn([C@H]3COCC[C@@H]3C#N)c3cc[nH]c(=O)c23)cc1)C(F)(F)F (single isomer, unassigned) [Example 1-40, tert-butyl N-{[(1R or 1S)-1-[4-({1-[(3R,4S)-4-cyanotetrahydro-2H-pyran-3-yl]-4-oxo-4,5-dihydro-1H-pyrazolo[4,3-c]pyridin-3-yl}amino)phenyl]-2,2,2-trifluoroethyl}glycinate]	0.16	0.78
CC(C)(C)OC(=O)CNC(c1ccc(Nc2nn([C@H]3COCC[C@@H]3C#N)c3cc[nH]c(=O)c23)cc1)C(F)(F)F (single isomer, unassigned) [Example 1-41, tert-butyl N-{(1S or 1R)-1-[4-({1-[(3R,4S)-4-cyanotetrahydro-2H-pyran-3-yl]-4-oxo-4,5-dihydro-1H-pyrazolo[4,3-c]pyridin-3-yl}amino)phenyl]-2,2,2-trifluoroethyl}glycinate]	0.14	0.6
N#C[C@H]1CCOC[C@@H]1n1nc(Nc2ccc(C(N3CCCC3)C(F)(F)F)cc2)c2c(=O)[nH]ccc21 (single isomer, unassigned) [Example 1-42, (3R,4S)-3-[4-oxo-3-({4-[(1R or 1S)-2,2,2-trifluoro-1-pyrrolidin-1-ylethyl]phenyl}amino)-4,5-dihydro-1H-pyrazolo[4,3-c]pyridin-1-yl]tetrahydro-2H-pyran-4-carbonitrile]	0.05	0.13
N#C[C@H]1CCOC[C@@H]1n1nc(Nc2ccc(C(N3CCCC3)C(F)(F)F)cc2)c2c(=O)[nH]ccc21 (single isomer, unassigned) [Example 1-43, (3R,4S)-3-[4-oxo-3-({4-[(1S or 1R)-2,2,2-trifluoro-1-pyrrolidin-1-ylethyl]phenyl}amino)-4,5-dihydro-1H-pyrazolo[4,3-c]pyridin-1-yl]tetrahydro-2H-pyran-4-carbonitrile]	0.04	0.08
CC(c1ccc(Nc2nn([C@H]3COCC[C@@H]3C#N)c3cc[nH]c(=O)c23)cc1)n1nccn1 (single isomer, unassigned) [Example 1-44, (3R,4S)-3-[4-oxo-3-({4-[(1S or 1R)-1-(2H-1,2,3-triazol-2-yl)ethyl]phenyl}amino)-4,5-dihydro-1H-pyrazolo[4,3-c]pyridin-1-yl]tetrahydro-2H-pyran-4-carbonitrile]	0.12	0.18
CC(c1ccc(Nc2nn([C@H]3COCC[C@@H]3C#N)c3cc[nH]c(=O)c23)cc1)n1nccn1 (single isomer, unassigned) [Example 1-45, (3R,4S)-3-[4-oxo-3-({4-[(1R or 1S)-1-(2H-1,2,3-triazol-2-yl)ethyl]phenyl}amino)-4,5-dihydro-1H-pyrazolo[4,3-c]pyridin-1-yl]tetrahydro-2H-pyran-4-carbonitrile]	0.14	0.21
CC1(C)CC1NC(c1ccc(Nc2nn([C@H]3COCC[C@@H]3C#N)c3cc[nH]c(=O)c23)cc1)C(F)(F)F (single isomer, unassigned) [Example 1-46, (3R,4S)-3-{3-[(4S or 4R-{1S or 1R-[(2,2-dimethylcyclopropyl)amino]-2,2,2-trifluoroethyl}phenyl)amino]-4-oxo-4,5-dihydro-1H-pyrazolo[4,3-c]pyridin-1-yl}tetrahydro-2H-pyran-4-carbonitrile]	0.14	0.21
CC1(C)CC1NC(c1ccc(Nc2nn([C@H]3COCC[C@@H]3C#N)c3cc[nH]c(=O)c23)cc1)C(F)(F)F (single isomer, unassigned) [Example 1-47, (3R,4S)-3-{3-[(4S or 4R-{1S or 1R-[(2,2-dimethylcyclopropyl)amino]-2,2,2-trifluoroethyl}phenyl)amino]-4-oxo-4,5-dihydro-1H-pyrazolo[4,3-c]pyridin-1-yl}tetrahydro-2H-pyran-4-carbonitrile]	0.27	0.43
CC1(C)CC1NC(c1ccc(Nc2nn([C@H]3COCC[C@@H]3C#N)c3cc[nH]c(=O)c23)cc1)C(F)(F)F (single isomer, unassigned) [Example 1-48, (3R,4S)-3-{3-[(4S or 4R-{1S or 1R-[(2,2-dimethylcyclopropyl)amino]-2,2,2-trifluoroethyl}phenyl)amino]-4-oxo-4,5-dihydro-1H-pyrazolo[4,3-c]pyridin-1-yl}tetrahydro-2H-pyran-4-carbonitrile]	0.65	1.73
CC1(C)CC1NC(c1ccc(Nc2nn([C@H]3COCC[C@@H]3C#N)c3cc[nH]c(=O)c23)cc1)C(F)(F)F (single isomer, unassigned) [Example 1-49, (3R,4S)-3-{3-[(4S or 4R-{1S or 1R-[(2,2-dimethylcyclopropyl)amino]-2,2,2-trifluoroethyl}phenyl)amino]-4-oxo-4,5-dihydro-1H-pyrazolo[4,3-c]pyridin-1-yl}tetrahydro-2H-pyran-4-carbonitrile]	0.18	0.3
CC(C)NC(c1ccc(Nc2nn([C@H]3COCC[C@@H]3C#N)c3cc[nH]c(=O)c23)cc1)C(F)(F)F (single isomer, unassigned) [Example 1-52, (3R,4S)-3-{4-oxo-3-[(4-{(1R or 1S)-2,2,2-trifluoro-1-[(1-methylethyl)amino]ethyl}phenyl)amino]-4,5-dihydro-1H-pyrazolo[4,3-c]pyridin-1-yl}tetrahydro-2H-pyran-4-carbonitrile]	0.08	0.11
CC(C)NC(c1ccc(Nc2nn([C@H]3COCC[C@@H]3C#N)c3cc[nH]c(=O)c23)cc1)C(F)(F)F (single isomer, unassigned) [Example 1-53, (3R,4S)-3-{4-oxo-3-[(4-{[1S or 1R)-2,2,2-trifluoro-[(1-methylethyl)amino]ethyl}phenyl)amino]-4,5-dihydro-1H-pyrazolo[4,3-c]pyridin-1-yl}tetrahydro-2H-pyran-4-carbonitrile]	0.08	0.09
CCNC(c1ccc(Nc2nn([C@H]3COCC[C@@H]3C#N)c3cc[nH]c(=O)c23)cc1)C(F)(F)F (single isomer, unassigned) [Example 1-54, (3R,4S)-3-[3-({4-[(1R or 1S)-1-(ethylamino)-2,2,2-trifluoroethyl]phenyl}amino)-4-oxo-4,5-dihydro-1H-pyrazolo[4,3-c]pyridin-1-yl]tetrahydro-2H-pyran-4-carbonitrile]	0.07	0.14
